# Measured values reported in patent publication US8192749B2, “Methods of simultaneously treating ocular rosacea and acne rosacea” (priority 2003, dated 2012).
# Counter-ions that a name gives are not always drawn. Like-named read-outs stand apart in the source and are kept apart here.
# Columns and labels:
# [1] = tested on: BALB/c 3T3 (CCL-163) cells
# [2] = based on steady-state pharmacokinetics; cited from earlier work
# [3] = single dose of two 100 mg minocycline HCl tablets, adult humans; cited from earlier work
# [4] = 250 mg every six hours over a twenty-four hour period; cited from earlier work
SMILES,MPE [1],PIF 1 [1],PIF 2 [1],other results
"CC1(O)c2cccc(O)c2C(=O)C2=C(O)C3(O)C(=O)C(C(N)=O)=C(O)CC3CC21 (stereo not shown) [COL 1, 4-dedimethylaminotetracycline]",0.460,–,–,–
"O=C(NCN1CCCC1)C1=C(O)CC2CC3Cc4cccc(O)c4C(=O)C3=C(O)C2(O)C1=O (stereo not shown) [COL 312, 2-CONHCH2-pyrrolidin-1-yl-6-demethyl-6-deoxy-4-dedimethylaminotetracycline]",0.442,62.67,75.11,–
"CN(C)c1ccc2c(c1O)C(=O)C1=C(O)C3(O)C(=O)C(C(N)=O)=C(O)CC3CC1C2 (stereo not shown) [COL 306, 9-dimethylamino-6-demethyl-6-deoxy-4-dedimethylaminotetracycline]",0.038,1.64,1.56,–
"CC1c2cccc(O)c2C(=O)C2=C(O)C3(O)C(=O)C(C(=O)NCN4CCCC4)=C(O)CC3C(O)C21 (stereo not shown) [COL 807, 2-CONHCH2-pyrrolidin-1-yl-4-dedimethylaminodoxycycline]",0.382,40.4,–,–
"CN(C)[C@@H]1C(O)=C(C(N)=O)C(=O)[C@@]2(O)C(O)=C3C(=O)c4c(O)cccc4[C@@](C)(O)[C@H]3C[C@@H]12 [Tetracycline, reference compound]",–,–,–,plasma antibiotic threshold level [2]: 0.5 µg/mL; MPE ([1]; mouse): 0.340; PIF 1 ([1]; mouse): 5.38
"NC(=O)C1=C(O)C[C@@H]2C[C@@H]3Cc4cccc(O)c4C(=O)C3=C(O)[C@]2(O)C1=O [COL 3, 6-demethyl-6-deoxy-4-dedimethylaminotetracycline]",0.654,647,84.72,–
"NC(=O)C1=C(O)CC2CC3Cc4ccc(N)c(O)c4C(=O)C3=C(O)C2(O)C1=O (stereo not shown) [COL 308, 9-amino-6-demethyl-6-deoxy-4-dedimethylaminotetracycline]",0.015,1.0,–,–
"CC1c2ccc(NC(=O)CN(C)C)c(O)c2C(=O)C2=C(O)C3(O)C(=O)C(C(N)=O)=C(O)CC3C(O)C21 (stereo not shown) [COL 802, 9-dimethylaminoacetamido-4-dedimethylaminodoxycycline]",−0.123,1.0,–,–
"O=C(NCN1CCCCC1)C1=C(O)CC2CC3Cc4cccc(O)c4C(=O)C3=C(O)C2(O)C1=O (stereo not shown) [COL 313, 2-CONHCH2-piperidin-1-yl-6-demethyl-6-deoxy-4-dedimethylaminotetracycline]",0.462,80.27,58.22,–
"O=C(NCN1CCNCC1)C1=C(O)CC2CC3Cc4cccc(O)c4C(=O)C3=C(O)C2(O)C1=O (stereo not shown) [COL 315, 2-CONHCH2-piperazin-1-yl-6-demethyl-6-deoxy-4-dedimethylaminotetracycline]",0.276,15.8,35.30,–
"CC1c2ccc(N)c(O)c2C(=O)C2=C(O)C3(O)C(=O)C(C(N)=O)=C(O)CC3C(O)C21 (stereo not shown) [COL 805, 9-amino-4-dedimethylaminodoxycycline]",0.022,1.0,–,–
"CC1(O)c2cccc(O)c2C(=O)C2=C(O)C3C(=O)C(C(N)=O)=C(O)CC3CC21 (stereo not drawn) [COL 7, 4-dedimethylamino-12α-deoxytetracycline]",0.531,–,–,–
"NC(=O)C1=C(O)CC2CC3Cc4c([N+](=O)[O-])ccc(O)c4C(=O)C3=C(O)C2(O)C1=O (stereo not shown) [COL 302, 7-nitro-6-demethyl-6-deoxy-4-dedimethylaminotetracycline]",0.378,23.16,23.32,–
"CCCCCCCCCCCCCCCC(=O)Nc1ccc2c(c1O)C(=O)C1=C(O)C3(O)C(=O)C(C(N)=O)=C(O)CC3CC1C2 (stereo not shown) [COL 311, 9-palmitamide-6-demethyl-6-deoxy-4-dedimethylaminotetracycline]",0.013,1.0,–,–
"O=C(NCN1CCOCC1)C1=C(O)CC2CC3Cc4cccc(O)c4C(=O)C3=C(O)C2(O)C1=O (stereo not shown) [COL 314, 2-CONHCH2-morpholin-1-yl-6-demetlyl-6-deoxy-4-dedimethylaminotetracycline]",0.475,41.1,89.48,–
"CC1c2ccc([N+](=O)[O-])c(O)c2C(=O)C2=C(O)C3(O)C(=O)C(C(N)=O)=C(O)CC3C(O)C21 (stereo not shown) [COL 804, 9-nitro-4-dedimethylaminodoxycycline]",0.003,1.0,–,–
"CN(C)c1ccc(O)c2c1CC1CC3CC(O)=C(C(N)=O)C(=O)C3(O)C(O)=C1C2=O (stereo not shown) [COL 10, 4-dedimethylaminominocycline]",0.099,1.82,2.04,mean PIF2 [1]: 2.04
"Cc1c2c(c(O)c3c(O)cccc13)C(=O)C1C(=O)C(C(N)=O)=C(O)CC1C2 (stereo not drawn) [COL 9, 4-de(dimethylamino)-12α-deoxyanhydrotetracycline]",0.546,–,–,–

SMILES,MPE [1],PIF 1 [1],PIF 2 [1],other results
CN(C)c1ccc(O)c2c1C[C@H]1C[C@H]3[C@H](N(C)C)C(O)=C(C(N)=O)C(=O)[C@@]3(O)C(O)=C1C2=O [minocycline HCl],–,–,–,average minocycline serum level [3]: 2.24 µg/mL
"NC(=O)C1=C(O)CC2CC3Cc4c(N)ccc(O)c4C(=O)C3=C(O)C2(O)C1=O (stereo not shown) [COL 307, 7-amino-6-demethyl-6-deoxy-4-dedimethylaminotetracycline]",0.056,1.17,–,–
"CC1c2cccc(O)c2C(=O)C2=C(O)C3(O)C(=O)C(C(=O)NCN4CCCCC4)=C(O)CC3C(O)C21 (stereo not shown) [COL 808, 2-CONHCH2-piperidin-1-yl-4-dedimethylaminodoxycycline]",0.387,46.45,–,–
"C[N+](C)(C)c1ccc(O)c2c1CC1CC3CC(O)=C(C(N)=O)C(=O)C3(O)C(O)=C1C2=O (stereo not shown) [COL 1001, 7-trimethylammonium-4-dedimethylaminosancycline]",0.025,–,–,–
"CN(C)c1cc([N+](=O)[O-])c(O)c2c1CC1CC3CC(O)=C(C(N)=O)C(=O)C3(O)C(O)=C1C2=O (stereo not shown) [COL 1002, 9-nitro-4-dedimethylaminominocycline]",0.040,1.0,1.35,mean PIF2 [1]: 1.35
"CC1(O)c2c(Cl)ccc(O)c2C(=O)C2=C(O)C3(O)C(=O)C(C(N)=O)=C(O)CC3CC21 (stereo not shown) [COL 4, 7-chloro-4-dedimethylaminotetracycline]",0.570,–,–,–
"CC(=O)Nc1ccc2c(c1O)C(=O)C1=C(O)C3(O)C(=O)C(C(N)=O)=C(O)CC3CC1C2 (stereo not shown) [COL 305, 9-acetamido-6-demethyl-6-deoxy-4-dedimethylaminotetracycline]",0.420,–,–,–
"CC1c2cccc(O)c2C(=O)C2=C(O)C3(O)C(=O)C(C(=O)NCN4CCNCC4)=C(O)CC3C(O)C21 (stereo not shown) [COL 809, 2-CONHCH2-piperazin-1-yl-4-dedimethylaminodoxycycline]",0.420,–,–,–
"CN(C)CCCN1c2ccccc2Sc2ccc(Cl)cc21 [Chlorpromazine, reference compound]",–,–,–,MPE ([1]; mouse): 0.639; PIF 2 ([1]; mouse): 40.38
"CC1c2cccc(O)c2C(=O)C2=C(O)C3(O)C(=O)C(C(N)=O)=C(O)CC3C(O)C21 (stereo not shown) [COL 8, 4-dedimethylaminodoxycycline]",0.703,165,82.61,–
CN(C)[C@@H]1C(O)=C(C(N)=O)C(=O)[C@@]2(O)C(O)=C3C(=O)c4c(O)cccc4[C@@](C)(O)[C@H]3C[C@@H]12 [tetracycline HCl],–,–,–,peak plasma concentration [4]: approximately 3 μg/ml
"CCCCCCCCCCCCCCCC(=O)Nc1ccc2c(c1O)C(=O)C1=C(O)C3(O)C(=O)C(C(N)=O)=C(O)CC3C(O)C1C2C (stereo not shown) [COL 803, 9-palmitamide-4-dedimethylaminodoxycycline]",0.047,–,–,–
"C[C@H]1c2cccc(O)c2C(=O)C2=C(O)[C@]3(O)C(=O)C(C(N)=O)=C(O)[C@@H](N(C)C)[C@@H]3[C@@H](O)[C@@H]21 [Doxycycline, 6α-deoxy-5-hydroxytetracycline, reference compound]",–,–,–,MPE ([1]; mouse): 0.522; PIF 1 ([1]; mouse): 23.37; PIF 2 ([1]; mouse): 26.71
"CN(C)CC(=O)Nc1ccc2c(c1O)C(=O)C1=C(O)C3(O)C(=O)C(C(N)=O)=C(O)CC3CC1C2 (stereo not shown) [COL 309, 9-dimethylaminoacetamido-6-demethyl-6-deoxy-4-dedimethylaminotetracycline]",0.170,5.17,12.87,–
"CC(=O)Nc1ccc2c(c1O)C(=O)C1=C(O)C3(O)C(=O)C(C(N)=O)=C(O)CC3C(O)C1C2C (stereo not shown) [COL 801, 9-acetamido-4-dedimethylaminodoxycycline]",−0.001,1.0,–,–
"CN(C)C1C(=O)C(C#N)=C(O)C2(O)C(=O)C3=C(O)c4c(O)cccc4C(C)(O)C3CC12 (stereo not shown) [COL 2, tetracyclinonitrile]",0.005,–,–,–
"CC1(O)c2cccc(O)c2C(=O)C2=C(O)C3(O)C(=O)C(C(N)=O)=C(O)C(O)C3CC21 (stereo not shown) [COL 6, 4-hydroxy-4-dedimethylaminotetracycline]",0.155,–,–,–
"NC(=O)C1=C(O)CC2CC3Cc4ccc([N+](=O)[O-])c(O)c4C(=O)C3=C(O)C2(O)C1=O (stereo not shown) [COL 303, 9-nitro-6-demethyl-6-deoxy-4-dedimethylaminotetracycline]",0.309,5.27,13.82,–
